US12187717B2, “Compound and use thereof in treating autoimmune diseases” (PARENCHYMA BIOTECH INC., priority 2022, dated 2025)

Columns and labels:
[1] = Pharmacokinetic parameters after oral or intravenous administration; type: in vivo; settings: rats
Method: For rats, an oral administration group was fasted for 16 hours, and an intravenous administration group was subjected to intravenous administration with 10 mL/kg of solution prepared by completely dissolving Compound 6 in an ethanol-Cremophor EL mixture corresponding to 7.5% (v/v) of the administered dose, and then diluting in phosphate buffered saline so as to be the final ethanol:Cremophor EL:phosphate buffered saline (0.375:0.375:9.25, v/v/v), without fasting, at the dose concentration listed in Table 3. The oral administration group was supplied with food about 4 hours after administration. Blood collection was performed on the intravenous administration group after 0.083, 0.5, 1, 2, 4, 8, 24 hours from the administration and on the oral administration group after 0.5, 1, 2, 4, 8, 12, 24 hours from the administration, and plasma was recovered using centrifugation. In the recovered plasma, the drug concentration in the plasma was measured using UHPLC-MS/MS method.

[2] = pH-metric solubility and logP (SIRIUS T3); type: physicochemical; settings: pH-metric results, SIRIUS T3
Method: After dissolving Compound 6 in ethanol, the solubility was measured and analyzed using a SIRIUS T3 machine.

CYP1A2 = target: T1, CYP1A2 (Homo sapiens, UniProt P05177); experiment: CYP isoenzyme activity; type: in vitro ADME; settings: 10 μM
T1 sequence (P05177 1-516): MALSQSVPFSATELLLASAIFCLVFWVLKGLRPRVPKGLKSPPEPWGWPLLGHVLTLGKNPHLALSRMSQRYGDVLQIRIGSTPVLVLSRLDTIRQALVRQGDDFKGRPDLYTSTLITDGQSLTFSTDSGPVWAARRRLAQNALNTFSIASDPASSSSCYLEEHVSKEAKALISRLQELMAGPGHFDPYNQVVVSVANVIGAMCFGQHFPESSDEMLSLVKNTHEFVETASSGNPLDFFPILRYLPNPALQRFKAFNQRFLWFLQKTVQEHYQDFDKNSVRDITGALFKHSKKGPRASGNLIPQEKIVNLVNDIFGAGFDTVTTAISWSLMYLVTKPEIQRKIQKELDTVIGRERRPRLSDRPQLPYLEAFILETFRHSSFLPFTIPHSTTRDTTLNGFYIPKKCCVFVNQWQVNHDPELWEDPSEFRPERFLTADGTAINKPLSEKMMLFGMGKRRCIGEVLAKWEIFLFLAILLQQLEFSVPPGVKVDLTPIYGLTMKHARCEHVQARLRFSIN

CYP2C9 = CYP2C9 (Homo sapiens, UniProt P11712); experiment: CYP isoenzyme activity; type: in vitro ADME; settings: 10 μM
Chain of CYP2C9 (P11712 whole entry): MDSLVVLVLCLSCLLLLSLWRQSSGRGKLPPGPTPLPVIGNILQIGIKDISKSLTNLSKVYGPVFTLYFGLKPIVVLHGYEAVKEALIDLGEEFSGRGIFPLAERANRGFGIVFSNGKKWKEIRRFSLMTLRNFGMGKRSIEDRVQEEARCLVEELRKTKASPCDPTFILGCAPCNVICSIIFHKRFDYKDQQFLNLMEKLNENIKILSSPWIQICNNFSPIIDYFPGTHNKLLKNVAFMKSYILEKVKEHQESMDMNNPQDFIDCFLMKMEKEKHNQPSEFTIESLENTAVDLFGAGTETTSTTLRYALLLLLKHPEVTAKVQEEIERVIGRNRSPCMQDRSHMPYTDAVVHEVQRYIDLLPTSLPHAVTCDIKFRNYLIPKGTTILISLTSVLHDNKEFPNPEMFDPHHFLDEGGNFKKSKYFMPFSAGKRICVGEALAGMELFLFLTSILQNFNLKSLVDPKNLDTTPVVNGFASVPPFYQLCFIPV

CYP2C19 = CYP2C19 (Homo sapiens, UniProt P33261); experiment: CYP isoenzyme activity; type: in vitro ADME; settings: 10 μM
Chain of CYP2C19 (P33261 whole entry): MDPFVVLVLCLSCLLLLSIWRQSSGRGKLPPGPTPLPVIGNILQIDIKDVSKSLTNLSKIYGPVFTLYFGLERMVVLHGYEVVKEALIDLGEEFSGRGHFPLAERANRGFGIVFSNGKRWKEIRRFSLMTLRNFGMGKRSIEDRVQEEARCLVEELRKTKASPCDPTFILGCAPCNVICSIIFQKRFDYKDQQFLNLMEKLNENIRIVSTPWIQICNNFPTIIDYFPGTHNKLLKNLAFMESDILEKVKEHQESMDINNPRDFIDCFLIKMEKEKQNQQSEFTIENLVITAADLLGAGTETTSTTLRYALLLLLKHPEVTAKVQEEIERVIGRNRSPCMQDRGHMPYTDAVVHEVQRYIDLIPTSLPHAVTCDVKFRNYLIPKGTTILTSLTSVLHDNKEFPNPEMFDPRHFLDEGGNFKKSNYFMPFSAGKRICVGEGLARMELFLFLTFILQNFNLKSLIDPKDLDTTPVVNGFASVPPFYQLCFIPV

CYP3A4 = CYP3A4 (Homo sapiens, UniProt P08684); settings: 2 days, 10 μM
Chain of CYP3A4 (P08684 whole entry): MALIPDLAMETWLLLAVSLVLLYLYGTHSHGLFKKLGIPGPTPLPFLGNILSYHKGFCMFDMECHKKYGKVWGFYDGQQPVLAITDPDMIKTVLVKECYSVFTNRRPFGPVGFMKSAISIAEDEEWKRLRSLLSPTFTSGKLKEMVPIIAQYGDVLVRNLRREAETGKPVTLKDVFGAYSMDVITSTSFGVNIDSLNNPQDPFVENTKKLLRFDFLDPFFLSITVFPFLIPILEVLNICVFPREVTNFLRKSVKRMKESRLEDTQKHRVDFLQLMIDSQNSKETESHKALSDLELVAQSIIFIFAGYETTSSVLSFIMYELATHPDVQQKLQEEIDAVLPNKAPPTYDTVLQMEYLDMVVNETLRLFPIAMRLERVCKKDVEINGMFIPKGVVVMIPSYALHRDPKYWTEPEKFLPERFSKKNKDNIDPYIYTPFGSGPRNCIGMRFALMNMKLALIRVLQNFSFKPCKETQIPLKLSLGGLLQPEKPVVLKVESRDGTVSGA
Method: Live human hepatocyte cell lines (Corning, Cat No. 454551) were collected using a plating medium, seeded on a 24-well plate so that a cell density thereof was 0.4×10^6 cells/well, and cultured for 2 to 4 hours. After replacing the plating medium with a hepatocyte culture medium, the hepatocytes were cultured for 24 hours. After culturing for 24 hours, hepatocytes were treated with Compound 6 at 1, 5, 25 µM. The medium containing the compound was changed every 24 hours for 2 days. The cultured cells were recovered to prepare mRNA samples. mRNA was extracted from the recovered cells by a phenol-chloroform sedimentation method using TRIZOL reagent (Invitrogen, Cat No. 15596018). From the isolated RNA, cDNA was synthesized by reverse transcription, followed by measuring drug metabolizing enzymes CYP1A2, CYP2C9, CYP2C19, CYP2B6, and CYP3A4 through real-time PCR analysis using the Quant Studio™ 7 Flex Real-Time PCR System (Applied Biosystems, CA). Relative values of the enzyme expression levels were compared by the ΔΔct method using GAPDH as a control enzyme. Herein, one (1) fold was set using the control. Results are expressed as % of control compared to control sample.

CYP2D6 = CYP2D6 (Homo sapiens, UniProt P10635); settings: 2 days, 10 μM
Chain of CYP2D6 (P10635 whole entry): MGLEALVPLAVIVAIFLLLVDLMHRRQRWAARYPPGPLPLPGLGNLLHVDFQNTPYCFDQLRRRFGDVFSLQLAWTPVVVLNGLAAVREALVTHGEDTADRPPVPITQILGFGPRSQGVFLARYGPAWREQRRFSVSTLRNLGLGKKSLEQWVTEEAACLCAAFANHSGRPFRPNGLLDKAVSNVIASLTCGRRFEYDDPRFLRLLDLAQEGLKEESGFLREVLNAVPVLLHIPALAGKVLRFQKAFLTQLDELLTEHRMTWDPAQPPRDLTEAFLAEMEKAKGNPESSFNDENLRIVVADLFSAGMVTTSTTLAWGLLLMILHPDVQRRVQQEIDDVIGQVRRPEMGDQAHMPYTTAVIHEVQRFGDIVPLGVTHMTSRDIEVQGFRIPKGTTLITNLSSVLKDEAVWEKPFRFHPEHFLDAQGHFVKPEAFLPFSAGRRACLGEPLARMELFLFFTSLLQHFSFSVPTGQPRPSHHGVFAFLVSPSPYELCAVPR

[3] = rat, plasma, Intravenous (IV), 1 mg/kg
[4] = rat, plasma, Oral (PO), 10 mg/kg
[5] = rat, plasma, Oral (PO), 100 mg/kg
[6] = Oral (PO), 10 mg/kg (reference dose, dose ratio 1)
[7] = Oral (PO), 100 mg/kg relative to 10 mg/kg (dose ratio 10.0)

O=C(Cc1c[nH]c2ccc(Cl)cc12)Nc1nc2ccccc2s1 [Comparative Example 1, N-(benzo[d]thiazol-2-yl)-2-(5-chloro-1H-indol-3-yl)acetamide, reference compound]
AUC(0-t) [1, 3]: 183 ng·h/mL | C0 [1, 3]: 406 ng/mL | clearance [1, 3]: 7.17 mL/min/kg | half-life [1, 3]: 48 min | Vd ([1]; rat, plasma, Intravenous (IV), 1 mg/kg, read-out: Vdss): 0.311 L/kg | AUC(0-t) [1, 4]: 366 ng·h/mL | Cmax [1, 4]: 126 ng/mL | Tmax [1, 4]: 60 min | half-life [1, 4]: 54 min | bioavailability ([1]; rat, plasma, Oral (PO), 10 mg/kg, read-out: Bioavailability (F %)): 20% | AUC(0-t) [1, 5]: 644 ng·h/mL | Cmax [1, 5]: 152 ng/mL | Tmax [1, 5]: 30 min | half-life [1, 5]: 408 min | AUClast Ratio [1, 6]: 1.0 | Cmax ratio [1, 6]: 1.0 | AUClast Ratio [1, 7]: 1.8 | Cmax ratio [1, 7]: 1.2 | logP [2]: 2.8 | pH-metric solubility, Molarity [2]: 3.65 μM | pH-metric solubility, Weight/ml [2]: 1.248 μg/ml | CYP1A2 activity (CYP1A2): 64.6 % of Control Activity | CYP2C9 activity (CYP2C9): 91.9 % of Control Activity | CYP2C19 activity (CYP2C19): 24.4 % of Control Activity | inhibition of the enzyme activity of CYP2C19 (CYP2C19): 24.4% | CYP3A4 activity (CYP3A4): 107.6 % of Control Activity | CYP2D6 activity (CYP2D6): 93.3 % of Control Activity
